Measurements taken from ChEMBL document CHEMBL1146987, “Ketopiperazine-based renin inhibitors: optimization of the "C" ring” (Bioorg Med Chem Lett, 2006).

What was measured:
[1] = molecular target: CYP3A4 (Homo sapiens, UniProt P08684); assay: Inhibition of CYP3A4 at 3 uM; type: ADME
[2] = molecular target: Cytochrome P450 3A4 (Homo sapiens, UniProt P08684); assay: Inhibition of CYP3A4 using BFC fluorogenic substrate; type: ADME
[3] = molecular target: T1, Renin (Homo sapiens, UniProt P00797); assay: Inhibition of renin
T1 sequence (P00797 whole entry): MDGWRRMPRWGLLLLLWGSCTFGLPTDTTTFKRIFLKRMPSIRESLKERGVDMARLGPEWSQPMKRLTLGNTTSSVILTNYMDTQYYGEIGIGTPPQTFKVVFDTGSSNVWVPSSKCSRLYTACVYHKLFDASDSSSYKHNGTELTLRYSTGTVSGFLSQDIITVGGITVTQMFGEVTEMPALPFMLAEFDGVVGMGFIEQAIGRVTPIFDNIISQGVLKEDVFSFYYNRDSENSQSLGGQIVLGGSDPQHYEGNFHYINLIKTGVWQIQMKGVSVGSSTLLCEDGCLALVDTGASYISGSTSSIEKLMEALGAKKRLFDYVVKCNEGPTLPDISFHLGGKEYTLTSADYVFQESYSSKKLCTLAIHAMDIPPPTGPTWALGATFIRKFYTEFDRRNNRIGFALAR

CYP3A4, sequence (P08684 whole entry): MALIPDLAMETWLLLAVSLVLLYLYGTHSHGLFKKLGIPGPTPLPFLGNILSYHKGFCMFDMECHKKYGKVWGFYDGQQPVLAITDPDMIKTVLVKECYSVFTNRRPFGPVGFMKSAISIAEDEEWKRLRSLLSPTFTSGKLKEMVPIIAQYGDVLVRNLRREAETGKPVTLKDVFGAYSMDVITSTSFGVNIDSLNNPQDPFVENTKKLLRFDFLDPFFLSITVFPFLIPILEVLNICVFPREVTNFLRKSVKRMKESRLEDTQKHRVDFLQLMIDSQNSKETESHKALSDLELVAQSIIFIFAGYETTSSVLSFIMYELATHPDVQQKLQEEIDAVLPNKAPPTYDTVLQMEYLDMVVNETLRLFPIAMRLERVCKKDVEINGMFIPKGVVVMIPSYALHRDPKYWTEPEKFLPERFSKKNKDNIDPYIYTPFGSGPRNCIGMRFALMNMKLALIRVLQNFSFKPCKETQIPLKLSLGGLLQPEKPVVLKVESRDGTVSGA
Cytochrome P450 3A4, sequence (P08684 whole entry): as above

Row | Compound | inhibition at 3 µM [1] | IC50 [2] | IC50 [3]
1 | COCCCN1C(=O)CCc2ccc(OC[C@H]3CNCC(=O)N3c3ccc(OCCCOCc4ccccc4OC)cc3)cc21 | 92% | 35 nM | 
2 | COCCCN1C(=O)COc2ccc(SC[C@H]3CNCC(=O)N3c3ccc(OCCCOCc4ccccc4OC)cc3)cc21 | 95% | 14 nM | 
3 | COc1ccccc1COCCCOc1ccc(N2C(=O)CNC[C@@H]2COc2ccc3c(c2)N(CCOC(=O)C(C)C)CCC3)cc1 | 92% | 54 nM | 550 nM
4 | COCCCN1CCCc2ccc(OC[C@H]3CNCC(=O)N3c3ccc(OCCCOCc4ccccc4OC)cc3)cc21 | 96% | 12 nM | 
5 | COc1ccccc1COCCCOc1ccc(N2C(=O)CNC[C@@H]2CSc2ccc3c(c2)N(CC(=O)O)C(=O)CO3)cc1 |  | 15000 nM | 1200 nM
6 | COc1ccccc1COCCCOc1ccc(N2C(=O)CNC[C@@H]2COc2ccc3c(c2)N(CCN2CCCC2=O)CCC3)cc1 |  | 42 nM | 606 nM
7 | COc1ccccc1COCCCOc1ccc(N2C(=O)CNC[C@@H]2COc2ccc3c(c2)N(CC(=O)O)C(=O)CO3)cc1 |  | 25000 nM | 364 nM
8 | COc1ccccc1COCCCOc1ccc(N2C(=O)CNC[C@@H]2COc2ccc3c(c2)N(CCN2CCOC2=O)CCC3)cc1 |  | 3790 nM | > 1000 nM
9 | COCCCN1C(=O)COc2ccc(OC[C@H]3CNCC(=O)N3c3ccc(OCCCOCc4ccccc4OC)cc3)cc21 | 95% |  | 0.68 nM

Further lines, results first:

Row | inhibition at 3 µM [1] | IC50 [2] | IC50 [3] | Compound
10 | 96% |  |  | CCC(=O)OCCN1CCCc2ccc(OC[C@H]3CNCC(=O)N3c3ccc(OCCCOCc4ccccc4OC)cc3)cc21
11 | 71% | 455 nM |  | COc1ccccc1COCCCOc1ccc(N2C(=O)CNC[C@@H]2COc2ccc3c(c2)N(CCCO)CCC3)cc1
12 |  | 18 nM | 4 nM | COc1ccccc1COCCCOc1ccc(N2C(=O)CNC[C@@H]2COc2ccc3c(c2)N(CCN(C)C(C)=O)CCC3)cc1
13 | 87% |  |  | COc1ccccc1COCCCOc1ccc(N2C(=O)CNC[C@@H]2COc2ccc3c(c2)N(CCOC(C)=O)CCC3)cc1
14 |  | 10000 nM | 450 nM | COc1ccccc1COCCCOc1ccc(N2C(=O)CNC[C@@H]2COc2ccc3c(c2)N(CCC(=O)O)CCC3)cc1
15 | 92% | 82 nM | 0.29 nM | COc1ccccc1COCCCOc1ccc(N2C(=O)CNC[C@@H]2COc2ccc3c(c2)N(CCNC(C)=O)CCC3)cc1
